Data reported in patent US8017612B2, “Piperazine compound and use thereof as a HCV polymerase inhibitor” (priority 2006, dated 2011).

Tests used:
[1] = target: T1, HCV polymerase (NS5B) type 1b (Hepatitis C virus genotype 1b, UniProt P26663); assay: Assay of enzyme (HCV polymerase) inhibitory activity, type 1b enzyme; assay type: biochemical, HCV BK strain (type 1b); conditions: HCV polymerase inhibitory activity (IC50), 1b, type 1b enzyme 0.5 μg/ml, 25° C., 60 min
T1 construct: a region encoding NS5B (J Virol 1991 March, 65(3), 1105-13, 544 amino acids after deletion of 47 amino acids on the C-terminal); 6xHis (C); made in house; host or cells: Escherichia coli
How it was run: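 IC50 derived from [3H]UTP incorporation into TCA-insoluble RNA, compared with and without test compound. Reaction (25 °C, 60 min, Tris pH 7.5, 5 mM MgCl2): E. coli-expressed 1b NS5B Δ47 with His tag at 0.5 μg/ml, 5 μg/ml run-off substrate RNA, ATP/GTP/CTP 50 μM, UTP 2 μM.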

[2] = target: T2, HCV polymerase (NS5B) type 1a (Hepatitis C virus genotype 1a, UniProt P26664); assay: Assay of enzyme (HCV polymerase) inhibitory activity, type 1a enzyme; assay type: biochemical, HCV type 1a (cloned from the blood of patients); conditions: HCV polymerase inhibitory activity (IC50), 1a, type 1a enzyme 1.5 μg/ml, 25° C., 60 min
T2 construct: made in house; host or cells: Escherichia coli (by the 'similar method' of the 1b enzyme)
How it was run: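 Reactions ran 60 min at 25° C in 20 mM Tris-HCl pH 7.5, 5 mM MgCl2, 50 mM NaCl, holding genotype 1a NS5B (1.5 μg/ml, Δ47 C-terminus, 6His), substrate RNA 5 μg/ml, UTP 2 μM with tritiated UTP and other NTPs 50 μM. IC50 derived from incorporated radiolabel in filter-trapped RNA relative to uninhibited reaction.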

Row | Compound | IC50 [1] [nM] | IC50 [2] [nM]
1 | CC(C)(C)c1ccc(CNC(=O)[C@H]2CN(c3nc4c(s3)C(=O)NC4=O)CCN2S(=O)(=O)c2ccc(OC(F)(F)F)cc2)cc1 [Example 573, (R)-4-(4,6-dioxo-5,6-dihydro-4H-pyrrolo[3,4-d]thiazol-2-yl)-1-(4-trifluoromethoxy-benzenesulfonyl)-piperazine-2-carboxylic acid 4-tert-butyl-benzylamide] | < 100 | < 100
2 | CCCc1ccc(CNC(=O)[C@H]2CN(c3cnc4cncnc4n3)CCN2S(=O)(=O)c2ccc(OC(F)(F)F)cc2)cc1 [Example 574, (R)-4-pteridin-7-yl-1-(4-trifluoromethoxy-benzenesulfonyl)-piperazine-2-carboxylic acid 4-propyl-benzylamide] | < 100 | < 100
3 | CC(C)(C)c1ccc(CNC(=O)[C@H]2CN(c3cnc(CO)c(N)n3)CCN2S(=O)(=O)c2ccc(OC(F)(F)F)cc2)cc1 [Example 575, (R)-6′-amino-5′-hydroxymethyl-4-(4-trifluoromethoxy-benzenesulfonyl)-3,4,5,6-tetrahydro-2H-[1,2′]bipyrazinyl-3-carboxylic acid 4-tert-butyl-benzylamide] | < 100 | < 100
4 | CCC(F)(F)c1ccc(CNC(=O)[C@H]2CN(c3nc(C)ns3)CCN2S(=O)(=O)c2ccc(OC(F)(F)F)cc2)cc1 [Example 576, (R)-4-(3-methyl-[1,2,4]thiadiazol-5-yl)-1-(4-trifluoromethoxy-benzenesulfonyl)-piperazine-2-carboxylic acid 4-(1,1-difluoro-propyl)-benzylamide] | < 100 | < 100
5 | Cc1nc(N2CCN(S(=O)(=O)c3ccc(OC(F)(F)F)cc3)[C@@H](C(=O)NCc3ccc(C(C)(C)C)cc3)C2)sc1C#N [Example 577, (R)-4-(5-cyano-4-methyl-thiazol-2-yl)-1-(4-trifluoromethoxy-benzenesulfonyl)-piperazine-2-carboxylic acid 4-tert-butyl-benzylamide] | < 100 | < 100
6 | CC(C)(C)c1ccc(CNC(=O)[C@H]2CN(c3nc4c(s3)C(=O)NCC4)CCN2S(=O)(=O)c2ccc(OC(F)(F)F)cc2)cc1 [Example 578, (R)-4-(4-oxo-4,5,6,7-tetrahydro-thiazolo[5,4-c]pyridin-2-yl)-1-(4-trifluoromethoxy-benzenesulfonyl)-piperazine-2-carboxylic acid 4-tert-butyl-benzylamide] | < 100 | < 100
7 | CC(C)(C)c1ccc(CNC(=O)[C@H]2CN(c3cnc4c(n3)NC(=O)OC4)CCN2S(=O)(=O)c2ccc(OC(F)(F)F)cc2)cc1 [Example 579, (R)-4-(2-oxo-1,4-dihydro-2H-pyrazino[2,3-d][1,3]oxazin-7-yl)-1-(4-trifluoromethoxy-benzenesulfonyl)-piperazine-2-carboxylic acid 4-tert-butyl-benzylamide] | < 100 | < 100
8 | CCC(F)(F)c1ccc(CNC(=O)[C@H]2CN(c3ccncn3)CCN2S(=O)(=O)c2ccc(OC(F)(F)F)cc2)cc1 [Example 580, (R)-4-pyrimidin-4-yl-1-(4-trifluoromethoxy-benzenesulfonyl)-piperazine-2-carboxylic acid 4-(1,1-difluoro-propyl)-benzylamide] | < 100 | < 100
9 | CC(C)(C)c1ccc(CNC(=O)[C@H]2CN(c3ccnc(O)n3)CCN2S(=O)(=O)c2ccc(OC(F)(F)F)cc2)cc1 [Example 581, (R)-4-(2-hydroxy-pyrimidin-4-yl)-1-(4-trifluoromethoxy-benzenesulfonyl)-piperazine-2-carboxylic acid 4-tert-butyl-benzylamide] | < 100 | < 100
10 | CCOC(=O)c1sc(N2CCN(S(=O)(=O)c3ccc(OC(F)(F)F)cc3)[C@@H](C(=O)NCc3ccc(C(C)(C)C)cc3)C2)nc1N [Example 582, 4-amino-2-[(R)-3-(4-tert-butyl-benzylcarbamoyl)-4-(4-trifluoromethoxy-benzenesulfonyl)-piperazin-1-yl]-thiazole-5-carboxylic acid ethyl ester] | 100 to 1000 | 100 to 1000
11 | Cc1nc(N2CCN(S(=O)(=O)c3ccc(OC(F)(F)F)cc3)[C@@H](C(=O)NCc3ccc(C(C)(C)C)cc3)C2)sc1-c1nnn[nH]1 [Example 583, (R)-4-[4-methyl-5-(1H-tetrazol-5-yl)-thiazol-2-yl]-1-(4-trifluoromethoxy-benzenesulfonyl)-piperazine-2-carboxylic acid 4-tert-butyl-benzylamide] | < 100 | < 100
12 | CCC(F)(F)c1ccc(CNC(=O)[C@H]2CN(c3ccnc(N)n3)CCN2S(=O)(=O)c2ccc(OC(F)(F)F)cc2)cc1 [Example 584, (R)-4-(2-amino-pyrimidin-4-yl)-1-(4-trifluoromethoxy-benzenesulfonyl)-piperazine-2-carboxylic acid 4-(1,1-difluoro-propyl)-benzylamide] | < 100 | < 100
13 | CCC(F)(F)c1ccc(CNC(=O)[C@H]2CN(c3nccc(N)n3)CCN2S(=O)(=O)c2ccc(OC(F)(F)F)cc2)cc1 [Example 585, (R)-4-(4-amino-pyrimidin-2-yl)-1-(4-trifluoromethoxy-benzenesulfonyl)-piperazine-2-carboxylic acid 4-(1,1-difluoro-propyl)-benzylamide] | 100 to 1000 | 100 to 1000
14 | CCC(F)(F)c1ccc(CNC(=O)[C@H]2CN(c3cnc(C(N)=O)cn3)CCN2S(=O)(=O)c2ccc(OC(F)(F)F)cc2)cc1 [Example 586, (R)-4-(4-trifluoromethoxy-benzenesulfonyl)-3,4,5,6-tetrahydro-2H-[1,2′]bipyrazinyl-3,5′-dicarboxylic acid 5′-amide 3-[4-(1,1-difluoro-propyl)-benzylamide]] | < 100 | < 100
15 | CC(C)(C)OC(=O)N1CCc2nc(N3CCN(S(=O)(=O)c4ccc(OC(F)(F)F)cc4)[C@@H](C(=O)NCc4ccc(C(C)(C)C)cc4)C3)sc2C1 [Example 587, 2-[(R)-3-(4-tert-butyl-benzylcarbamoyl)-4-(4-trifluoromethoxy-benzenesulfonyl)-piperazin-1-yl]-6,7-dihydro-4H-thiazolo[5,4-c]pyridine-5-carboxylic acid tert-butyl ester] | < 100 | 100 to 1000
16 | CC(C)(C)c1ccc(CNC(=O)[C@H]2CN(c3nc4c(s3)CNCC4)CCN2S(=O)(=O)c2ccc(OC(F)(F)F)cc2)cc1 [Example 588, (R)-4-(4,5,6,7-tetrahydro-thiazolo[5,4-c]pyridin-2-yl)-1-(4-trifluoromethoxy-benzenesulfonyl)-piperazine-2-carboxylic acid 4-tert-butyl-benzylamide] | < 100 | < 100
17 | CC(=O)N1CCc2nc(N3CCN(S(=O)(=O)c4ccc(OC(F)(F)F)cc4)[C@@H](C(=O)NCc4ccc(C(C)(C)C)cc4)C3)sc2C1 [Example 589, (R)-4-(5-acetyl-4,5,6,7-tetrahydro-thiazolo[5,4-c]pyridin-2-yl)-1-(4-trifluoromethoxy-benzenesulfonyl)-piperazine-2-carboxylic acid 4-tert-butyl-benzylamide] | < 100 | < 100
18 | CCC(F)(F)c1ccc(CNC(=O)[C@H]2CN(C(=O)Cc3ccncn3)CCN2S(=O)(=O)c2ccc(OC(F)(F)F)cc2)cc1 [Example 590, (R)-4-(2-pyrimidin-4-yl-acetyl)-1-(4-trifluoromethoxy-benzenesulfonyl)-piperazine-2-carboxylic acid 4-(1,1-difluoro-propyl)-benzylamide] | < 100 | < 100
19 | CCC(F)(F)c1ccc(CNC(=O)[C@H]2CN(c3cnc(C#N)cn3)CCN2S(=O)(=O)c2ccc(OC(F)(F)F)cc2)cc1 [Example 591, (R)-5′-cyano-4-(4-trifluoromethoxy-benzenesulfonyl)-3,4,5,6-tetrahydro-2H-[1,2′]bipyrazinyl-3-carboxylic acid 4-(1,1-difluoro-propyl)-benzylamide] | < 100 | < 100
20 | CCC(F)(F)c1ccc(CNC(=O)[C@H]2CN(c3cnc(-c4nnn[nH]4)cn3)CCN2S(=O)(=O)c2ccc(OC(F)(F)F)cc2)cc1 [Example 592, (R)-5′-(1H-tetrazol-5-yl)-4-(4-trifluoromethoxy-benzenesulfonyl)-3,4,5,6-tetrahydro-2H-[1,2′]bipyrazinyl-3-carboxylic acid 4-(1,1-difluoro-propyl)-benzylamide] | < 100 | < 100
21 | CC(C)(C)c1ccc(CNC(=O)[C@H]2CN(c3cnc(CN4CCOCC4)cn3)CCN2S(=O)(=O)c2ccc(OC(F)(F)F)cc2)cc1 [Example 593, (R)-5′-morpholin-4-ylmethyl-4-(4-trifluoromethoxy-benzenesulfonyl)-3,4,5,6-tetrahydro-2H-[1,2′]bipyrazinyl-3-carboxylic acid 4-tert-butyl-benzylamide] | < 100 | < 100
22 | CN1CCN(Cc2cnc(N3CCN(S(=O)(=O)c4ccc(OC(F)(F)F)cc4)[C@@H](C(=O)NCc4ccc(C(C)(C)C)cc4)C3)cn2)CC1 [Example 594, (R)-5′-(4-methyl-piperazin-1-ylmethyl)-4-(4-trifluoromethoxy-benzenesulfonyl)-3,4,5,6-tetrahydro-2H-[1,2′]bipyrazinyl-3-carboxylic acid 4-tert-butyl-benzylamide] | < 100 | < 100
